#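 These data come from cells grown in 96-well plates and exposed to compound for 48 hours at five concentrations. Here, GI50 denotes the concentration required for 50% inhibition of growth.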 Activity calls are given as the source filed them. No stated cut-off is given here; in the data, active = GI50 up to about 1.1 µM and inactive = higher.
# Tests used:
# Experiment in all cases: inhibition of tumour cell growth, NCI panel, 48 h
# SNB-19 = tested on: SNB-19
# MOLT-4 = tested on: MOLT-4
# EKVX = tested on: EKVX
# COLO 205 = tested on: COLO 205
# LXFL 529 = tested on: LXFL 529
# CAKI-1 = tested on: CAKI-1
# HCT-15 = tested on: HCT-15
# 786-0 = tested on: 786-0
# HCC 2998 = tested on: HCC 2998
# LOX IMVI = tested on: LOX IMVI
# SNB-78 = tested on: SNB-78
# SF-539 = tested on: SF-539
# IGROV-1 = tested on: IGROV-1
# SF-295 = tested on: SF-295
# U-251 = tested on: U-251
# HOP-92 = tested on: HOP-92
# HOP-62 = tested on: HOP-62
# HT-29 = tested on: HT-29
# SF-268 = tested on: SF-268
# UACC-62 = tested on: UACC-62
# SK-MEL-2 = tested on: SK-MEL-2
# DMS-114 = tested on: DMS-114
# A498 = tested on: A498
# SW-620 = tested on: SW-620
# SN12C = tested on: SN12C
# UO-31 = tested on: UO-31
# M14 = tested on: M14
# TK-10 = tested on: TK-10
# SK-OV-3 = tested on: SK-OV-3
# SNB-75 = tested on: SNB-75
# NCI-H226 = tested on: NCI-H226
# DLD-1 = tested on: DLD-1
# OVCAR-5 = tested on: OVCAR-5
# A549 = tested on: A549
# KM-20L2 = tested on: KM-20L2
# OVCAR-8 = tested on: OVCAR-8
# OVCAR-3 = tested on: OVCAR-3
# NCI-H23 = tested on: NCI-H23
# M19-MEL = tested on: M19-MEL
# K562 = tested on: K562
# SK-MEL-28 = tested on: SK-MEL-28
# NCI-H460 = tested on: NCI-H460
# ACHN = tested on: ACHN
# HCT-116 = tested on: HCT-116
# SK-MEL-5 = tested on: SK-MEL-5
# UACC-257 = tested on: UACC-257
# KM12 = tested on: KM12
# RXF 393 = tested on: RXF 393
# RPMI-8226 = tested on: RPMI-8226
# Malme-3M = tested on: Malme-3M
# CCRF-CEM = tested on: CCRF-CEM
# OVCAR-4 = tested on: OVCAR-4
# SR = tested on: SR
# NCI-H522 = tested on: NCI-H522
# MCF7 = tested on: MCF7
# PC-3 = tested on: PC-3
# DMS-273 = tested on: DMS-273
# BT-549 = tested on: BT-549
# MDA-MB-435 = tested on: MDA-MB-435
# T47D = tested on: T47D
# MDA-MB-231 = tested on: MDA-MB-231
# HOP-18 = tested on: HOP-18
# MDA-N = tested on: MDA-N
# DU-145 = tested on: DU-145
# Hs-578T = tested on: Hs-578T
# HL-60 = tested on: HL-60
# NCI/ADR-RES = tested on: NCI/ADR-RES
smiles,measurement,setting,value
C/C(=N\NC(=O)C[n+]1ccccc1)c1sc(-c2nc(C)c(/C(C)=N/NC(=O)C[n+]3ccccc3)s2)nc1C,GI50,SNB-19,> 100 µM (inactive)
same,GI50,MOLT-4,95.9 µM (inactive)
same,GI50,EKVX,> 100 µM (inactive)
same,GI50,COLO 205,> 100 µM (inactive)
same,GI50,LXFL 529,95.9 µM (inactive)
same,GI50,CAKI-1,> 100 µM (inactive)
same,GI50,HCT-15,37.7 µM
same,GI50,786-0,> 100 µM (inactive)
same,GI50,HCC 2998,> 100 µM (inactive)
same,GI50,LOX IMVI,> 100 µM (inactive)
same,GI50,SNB-78,> 100 µM (inactive)
same,GI50,SF-539,> 100 µM (inactive)
same,GI50,IGROV-1,> 100 µM (inactive)
same,GI50,SF-295,> 100 µM (inactive)
same,GI50,U-251,> 100 µM (inactive)
same,GI50,HOP-92,> 100 µM (inactive)
same,GI50,HOP-62,> 100 µM (inactive)
same,GI50,HT-29,36.3 µM (inactive)
same,GI50,SF-268,> 100 µM (inactive)
same,GI50,UACC-62,65 µM (inactive)
same,GI50,SK-MEL-2,> 100 µM (inactive)
same,GI50,DMS-114,38.3 µM (inactive)
same,GI50,A498,> 100 µM (inactive)
same,GI50,SW-620,> 100 µM (inactive)
same,GI50,SN12C,> 100 µM (inactive)
same,GI50,UO-31,> 100 µM (inactive)
same,GI50,M14,> 100 µM (inactive)
same,GI50,TK-10,> 100 µM (inactive)
same,GI50,SK-OV-3,> 100 µM (inactive)
same,GI50,SNB-75,> 100 µM (inactive)
same,GI50,NCI-H226,> 100 µM (inactive)
same,GI50,DLD-1,> 100 µM (inactive)
same,GI50,OVCAR-5,> 100 µM (inactive)
same,GI50,A549,> 100 µM (inactive)
same,GI50,KM-20L2,> 100 µM (inactive)
same,GI50,OVCAR-8,> 100 µM (inactive)
same,GI50,OVCAR-3,> 100 µM (inactive)
same,GI50,NCI-H23,> 100 µM (inactive)
same,GI50,M19-MEL,> 100 µM (inactive)
same,GI50,K562,41.1 µM (inactive)
same,GI50,SK-MEL-28,> 100 µM (inactive)
same,GI50,NCI-H460,> 100 µM (inactive)
same,GI50,ACHN,> 100 µM (inactive)
same,GI50,HCT-116,68.5 µM (inactive)
same,GI50,SK-MEL-5,> 100 µM (inactive)
same,GI50,UACC-257,> 100 µM (inactive)
same,GI50,KM12,> 100 µM (inactive)
same,GI50,RXF 393,> 100 µM (inactive)
same,GI50,RPMI-8226,43.9 µM (inactive)
same,GI50,Malme-3M,> 100 µM (inactive)
same,GI50,CCRF-CEM,> 10 µM (inactive)
COc1cc2ccc1NC(=O)N1CCN(CC1)C(=O)Nc1ccc(cc1OC)-c1ccc(c(OC)c1)NC(=O)N1CCN(CC1)C(=O)Nc1ccc-2cc1OC,GI50,SNB-19,> 100 µM (inactive)
same,GI50,MOLT-4,> 100 µM (inactive)
same,GI50,COLO 205,> 100 µM (inactive)
same,GI50,LXFL 529,> 100 µM (inactive)
same,GI50,HCC 2998,> 100 µM (inactive)
same,GI50,SNB-78,> 100 µM (inactive)
same,GI50,SF-539,> 100 µM (inactive)
same,GI50,OVCAR-4,> 100 µM (inactive)
same,GI50,IGROV-1,> 100 µM (inactive)
same,GI50,SF-295,> 100 µM (inactive)
same,GI50,HOP-92,> 100 µM (inactive)
same,GI50,HOP-62,> 100 µM (inactive)
same,GI50,HT-29,> 100 µM (inactive)
same,GI50,SF-268,> 100 µM (inactive)
same,GI50,UACC-62,> 100 µM (inactive)
same,GI50,SK-MEL-2,> 100 µM (inactive)
same,GI50,DMS-114,> 100 µM (inactive)
same,GI50,A498,> 100 µM (inactive)
same,GI50,SR,> 100 µM (inactive)
same,GI50,UO-31,> 100 µM (inactive)
same,GI50,M14,> 100 µM (inactive)
same,GI50,SK-OV-3,> 100 µM (inactive)
same,GI50,SNB-75,> 100 µM (inactive)
same,GI50,OVCAR-3,> 100 µM (inactive)
same,GI50,NCI-H23,> 100 µM (inactive)
same,GI50,NCI-H522,> 100 µM (inactive)
same,GI50,M19-MEL,> 100 µM (inactive)
same,GI50,K562,> 100 µM (inactive)
same,GI50,SK-MEL-28,> 100 µM (inactive)
same,GI50,NCI-H460,> 100 µM (inactive)
same,GI50,ACHN,> 100 µM (inactive)
same,GI50,HCT-116,> 100 µM (inactive)
same,GI50,UACC-257,> 100 µM (inactive)
same,GI50,KM12,> 100 µM (inactive)
same,GI50,RXF 393,> 100 µM (inactive)
same,GI50,RPMI-8226,> 100 µM (inactive)
same,GI50,CCRF-CEM,> 100 µM (inactive)
Cc1c2cc[n+](C)c(C)c2cc2c1[nH]c1ccccc12,GI50,SNB-19,0.8 µM (active)
same,GI50,MOLT-4,4.05 µM (inactive)
same,GI50,MCF7,5.74 µM (inactive)
same,GI50,EKVX,5.46 µM (inactive)
same,GI50,COLO 205,1.57 µM (inactive)
same,GI50,CAKI-1,31.3 µM (inactive)
same,GI50,HCT-15,> 100 µM
same,GI50,786-0,0.646 µM (active)
same,GI50,HCC 2998,7.78 µM (inactive)
same,GI50,LOX IMVI,21.7 µM (inactive)
same,GI50,SNB-78,5.05 µM (inactive)
same,GI50,SF-539,2.96 µM (inactive)
same,GI50,OVCAR-4,5.43 µM (inactive)
same,GI50,IGROV-1,7.98 µM (inactive)
same,GI50,PC-3,22.2 µM (inactive)
same,GI50,SF-295,2.27 µM (inactive)
same,GI50,U-251,0.69 µM (active)
same,GI50,HOP-92,7.46 µM (inactive)
same,GI50,HOP-62,3.16 µM (inactive)
same,GI50,HT-29,10.6 µM (inactive)
same,GI50,DMS-273,3.63 µM (inactive)
same,GI50,BT-549,2.44 µM (inactive)
same,GI50,SF-268,0.984 µM (active)
same,GI50,UACC-62,11.3 µM (inactive)
same,GI50,SK-MEL-2,6.73 µM (inactive)
same,GI50,DMS-114,1.57 µM (inactive)
same,GI50,A498,70.5 µM (inactive)
same,GI50,SW-620,8.09 µM (inactive)
same,GI50,MDA-MB-435,16.2 µM (inactive)
same,GI50,SR,> 26.6 µM (inactive)
same,GI50,SN12C,0.627 µM (active)
same,GI50,T47D,2.14 µM (inactive)
same,GI50,UO-31,67.6 µM (inactive)
same,GI50,M14,25.2 µM (inactive)
same,GI50,TK-10,> 89.3 µM (inactive)
same,GI50,SK-OV-3,12.7 µM (inactive)
same,GI50,MDA-MB-231,2.51 µM (inactive)
same,GI50,SNB-75,1.19 µM (inactive)
same,GI50,NCI-H226,1.69 µM (inactive)
same,GI50,HOP-18,0.586 µM (active)
same,GI50,DLD-1,10.5 µM (inactive)
same,GI50,MDA-N,27.5 µM (inactive)
same,GI50,OVCAR-5,19.2 µM (inactive)
same,GI50,A549,1.59 µM (inactive)
same,GI50,DU-145,10.7 µM (inactive)
same,GI50,KM-20L2,4.99 µM (inactive)
same,GI50,OVCAR-8,2.82 µM (inactive)
same,GI50,OVCAR-3,5 µM (inactive)
same,GI50,Hs-578T,0.818 µM (active)
same,GI50,NCI-H23,2.05 µM (inactive)
same,GI50,NCI-H522,2.86 µM (inactive)
same,GI50,M19-MEL,3.44 µM (inactive)
same,GI50,HL-60,16.9 µM (inactive)
same,GI50,K562,4.94 µM (inactive)
same,GI50,SK-MEL-28,5.41 µM (inactive)
same,GI50,NCI-H460,3.37 µM (inactive)
same,GI50,ACHN,36.3 µM (inactive)
same,GI50,HCT-116,16.1 µM (inactive)
same,GI50,SK-MEL-5,2.44 µM (inactive)
same,GI50,NCI/ADR-RES,71.1 µM (inactive)
same,GI50,UACC-257,10.8 µM (inactive)
same,GI50,KM12,2.65 µM (inactive)
same,GI50,RXF 393,38.7 µM (inactive)
same,GI50,RPMI-8226,6.07 µM (inactive)
same,GI50,Malme-3M,2.72 µM (inactive)
same,GI50,CCRF-CEM,6.9 µM (inactive)

# Reference: ChEMBL document CHEMBL1201862, “PubChem BioAssay data set” (2004)
